From patent US10590411B2, “Crude biological derivatives competent for nucleic acid detection” (APPLIED BIOSYSTEMS, LLC, priority 2002, dated 2020)

Test system: tissue plasminogen activator (t-PA)
Assay: t-PA mRNA level after PMA treatment, one-step real-time RT-PCR on cell lysate
Assay type: cell-based
Settings: HeLa cells, 100 and 10 nM PMA, 24 hours, normalized to 18S rRNA
Description: FIG. 3. Illustrates an example of measuring the levels of 18S rRNA and tPA mRNA in HeLa cells that were incubated with different concentrations of PMA by one-step, real-time RT-PCR in the ABI 7700. The cells were processed in 96-well plates using the methods of the invention.
Cells were grown overnight in 0.2 ml DME media with 10% FBS with equal number of cells in each well of a 96-well plate. After an overnight incubation, phorbol myristate acetate (PMA) is added to final concentrations of 100, 10, 1, 0.1, and 0 nM in the growth medium in replicates of eight. The cells were incubated at 37° C. for 24 hours. The 96-well plate and lid were placed on the Packard MultiPROBE® II HT Liquid Handling System from PerkinElmer Life Sciences on the proper deck positions. All proceeding steps were entered into the WinPrep for automation. The growth medium was removed and the cells washed with 1×PBS. A volume of 0.1 ml Cell Lysis Buffer is added to each well. The plate was moved to a heating tile, for example, a tile at 75°, and incubated for 10 minutes. […] The plate was shaken for 2 minutes. PMSF can be used when the heating tile cannot heat the sample to 75° C. to inactivate the proteinase K. Two μl DNase I (2 U/μl) was added to each well and the plate was moved to a 37° C. heating tile. The plate was incubated for 15 minutes while shaking. […] The plate was ready for one-step RT-PCR. […]

With `CCCCCCCCCCCCCC(=O)O[C@@H]1[C@@H](C)[C@@]2(O)[C@@H](C=C(CO)C[C@]3(O)C(=O)C(C)=C[C@@H]23)[C@@H]2C(C)(C)[C@]12OC(C)=O` [PMA, phorbol myristate acetate] the “stimulation of t-PA” value was about 29 fold.
